Consider 23 molecules from patent publication US5766875A, “Metabolic monitoring of cells in a microplate reader” (priority 1995, dated 1998).

The conditions of data set [1]: Redox Indicators; cited from earlier work.
The nature of data set [2]: Apparent pH change with temperature of buffering systems as indicated by phenol red. The format is physicochemical. Conditions: phenol red pH indicator; 50 mM total buffer; equilibrium with CO2 in air.
A further data set concerns M1WT3 cells. Briefly: Carbachol stimulation of M1WT3 cells, extracellular acidification rate in a THERMOmax microplate reader (Example 8). The data set is classed as cell-based. Conditions: for ΔpH/Sec: mean of triplicate. On the procedure: The M1WT3 cells used for the following experiments were obtained from the American Type Culture Collection (No. CRL 1985). These cells were a line of CHO-K1 cells transfected with the gene for muscarinic receptors in order to provide cells responsive to cholinergic agonists, such as Carbachol. The M1WT3 cells were grown in Ham's F12 medium with 50 μg/ml […] (Geneticin), 10% fetal bovine serum, […], 1.0 mg/L streptomycin and 1000 units/L penicillin (growing medium) under 5% CO2 at 37° C.
To initiate growth, 5×10^4 M1WT3 cell/well (200 μL/well) were sterilely plated in selected individual wells of a flat bottom 96-well microplate. The selected wells were comprised of the inner 60 wells. At least 3 of the inner wells, however, were left without cells to be used as control wells. The entire microplate then was covered with a loosely-fitting plastic cover that allowed gas exchange to the wells and the microplate was incubated at 37° C. for approximately 24 hours to allow cells to attach to bottom of each selected well with cells.
Twelve hours prior to measuring extracellular acidification the growing media was aspirated off with a vacuum system and replaced with 200 μL of starving media (growing media with 1 mg/ml bovine serum albumin in place of the 10% fetal bovine serum) and the cells were again placed under 5% CO2 at 37° C. The microplate was then incubated for 12 hours. Within 30-60 minutes prior to monitoring the rates of extracellular acidification, the starving medium was aspirated off, the wells were rinsed with approximately 200 μL simple indicator medium (Table 2 components) and then filled with 200 μL of simple indicator medium. All media was warmed to 37° C. before addition to the cells.
The light absorbance of the individual wells of the 96-well microplate was read in a THERMOmax™ microplate absorbance reader modified to record the ratio of optical density at two wavelengths (560 nm/420 nm), kinetically at 37° C. for 15 minutes with automix on. The automix feature is described in the Operator's Manual for the THERMOmax™ instrument (Catalog No. 0112-0014) of Molecular Devices Corporation, Menlo Park, Calif. The automix feature provides for uniform mixing of the contents of each well of the multiassay plate for about 5 seconds, followed by measurement of optical density at the first wavelength (in this case 560 nm) in about 5 seconds, followed by a change in interference filter in about 1 second, followed by measurement of optical density at the second wavelength (in this case 420 nm) in about 5 seconds. Thus, all optical density measurements are completed within 11 seconds following termination of the agitation step and the time elapsed for any one well between measuring the optical density at the first and second wavelengths was 6 seconds. This was the minimum time between reading optical density at the first and second wavelengths possible with the THERMOmax™ instrument. Preferably the readings at the first and second wavelengths are made simultaneously.
Additionally, the contents of the microplate wells were not agitated between reading optical density at the first and second wavelengths so that the light scattering effects of the cells tended to be the same for the optical density measurements made at the first and second wavelengths for any one well. […] The reading cycle, with agitation, measuring absorbance at the first wavelength of light, changing the filter, and reading the absorbance at the second wavelength of light, was repeated at the rate of 3 cycles per minute (i.e. every 20 seconds).
At the end of the 15 minutes the reading cycles were stopped, the microplate was removed and the media was quickly aspirated off and replaced with simple indicator media containing a cell-affecting agent, in this case 0 to 300 μM Carbachol. The reading cycles then were repeated, as above, for two consecutive 15 minute data collection periods followed by one final 30 minute data collection period. […]

Where a name gives a salt, the structure may show the parent alone. Read-outs that look alike come from different tables or passages of the source.

For the molecule `COc1cc(-c2ccc(N)c(OC)c2)ccc1N` [3,3'-Dimethoxybenzidine], the “Potential at pHOa” value in data set [1] is 0.76 Volts.

Turning to `Cc1cc2nc3ccc(N(C)C)cc3nc2cc1N` [Neutral Red], the “Potential at pHOa” value in data set [1] was -0.24 Volts.

As for `CC[N+](CC)=c1ccc2nc3c(cc(N)c4ccccc43)oc-2c1` [Nile Blue A], in data set [1], the “Potential at pHOa” value is on record as 0.29 Volts.

With `CCOc1ccc(N=Nc2ccc(N)cc2N)cc1` [p-Ethoxyphenylazo-m-phenylanediamine Monohydrochloride], the “Potential at pHOa” value in data set [1] is 0.76 Volts.

On to `O=C(O)c1ccccc1Nc1ccccc1` [N-Phenylanthranilic Acid], for which the “Potential at pHOa” value in data set [1] is reported as 1.08 Volts.

In the case of `CN(C)c1ccc2nc3ccc(=[N+](C)C)cc-3sc2c1` [Methylene Blue], the “Potential at pHOa” value in data set [1] is recorded as 0.53 Volts.

As to `COc1ccc(Nc2ccc(N)cc2)cc1` [N-(p-Methoxyphenyl)-p-phenylanediamine Hydrochloride], in data set [1], the “Potential at pHOa” value was 0.71 Volts.

For `O=C(O)CN(CCN(CC(=O)O)CC(=O)O)CC(=O)O` [EDTA, Ethylenedinitrilo-Tetraacetic Acid], the “apparent change in pH with change in temperature” value in data set [2] was “less than 1 millipH/°C”.

In the case of `C[N+](C)(C)CCOC(N)=O` [Carbachol], the “ΔProtons/Cell·Sec minus 0 Carbachol” value with M1WT3 cells (3 μM, First 15 min) is given as 1.00E + 07 ΔProtons/Cell·Sec; in the data set with M1WT3 cells (3 μM, Last 30 min) it was 1.44E - 07 ΔProtons/Cell·Sec; with M1WT3 cells (3 μM, Second 15 min), 1.12E - 07 ΔProtons/Cell·Sec; in the data set on M1WT3 cells (10 μM, First 15 min) it was 1.44E + 07 ΔProtons/Cell·Sec; with M1WT3 cells (10 μM, Last 30 min), 2.10E - 07 ΔProtons/Cell·Sec; with M1WT3 cells (30 μM, First 15 min) it was 1.12E + 07 ΔProtons/Cell·Sec. The “ΔProtons/Cell·Sec minus 0 Carbachol” value in the data set with M1WT3 cells (30 μM, Second 15 min) turned out to be 1.47E - 07 ΔProtons/Cell·Sec; with M1WT3 cells (300 μM, First 15 min) it was 6.76E + 06 ΔProtons/Cell·Sec; in the data set with M1WT3 cells (300 μM, Second 15 min), 1.11E - 07 ΔProtons/Cell·Sec. The ΔpH/Sec in the data set with M1WT3 cells (3 μM, First 15 min) worked out at 7.1534E - 05 ΔpH/Sec; with M1WT3 cells (3 μM, Last 30 min), 5.0490E - 05 ΔpH/Sec; in the data set on M1WT3 cells (3 μM, Second 15 min) it was 5.2542E - 05 ΔpH/Sec; in the data set on M1WT3 cells (10 μM, First 15 min), 7.5928E - 05 ΔpH/Sec; in the data set on M1WT3 cells (10 μM, Last 30 min), 5.7103E - 05 ΔpH/Sec; in the data set on M1WT3 cells (10 μM, Second 15 min), 5.6378E - 05 ΔpH/Sec. The ΔpH/Sec amounted to 7.2713E - 05 ΔpH/Sec with M1WT3 cells (30 μM, First 15 min); 5.7641E - 05 ΔpH/Sec in the data set with M1WT3 cells (30 μM, Last 30 min); 5.6101E - 05 ΔpH/Sec in the data set on M1WT3 cells (30 μM, Second 15 min); 8.8294E - 05 ΔpH/Sec in the data set with M1WT3 cells (300 μM, First 15 min); 5.2560E - 05 ΔpH/Sec in the data set on M1WT3 cells (300 μM, Last 30 min); 5.2420E - 05 ΔpH/Sec in the data set on M1WT3 cells (300 μM, Second 15 min). Moreover, the activation at 3 µM was 5.94% in the data set on M1WT3 cells (0.25 h, 3 μM, First 15 min, read-out: % Change compared to pre-Carbachol); 12.6% in the data set with M1WT3 cells (0.25 h, 3 μM, First 15 min, read-out: % Change compared to pre-Carbachol minus 0 Carbachol); -25.2% in the data set with M1WT3 cells (0.5 h, 3 μM, Last 30 min, read-out: % Change compared to pre-Carbachol); 20% in the data set with M1WT3 cells (0.5 h, 3 μM, Last 30 min, read-out: % Change compared to pre-Carbachol minus 0 Carbachol); -22.2% in the data set on M1WT3 cells (0.5 h, 3 μM, Second 15 min, read-out: % Change compared to pre-Carbachol); 15% with M1WT3 cells (0.5 h, 3 μM, Second 15 min, read-out: % Change compared to pre-Carbachol minus 0 Carbachol). The activation at 10 µM was 20% with M1WT3 cells (0.25 h, 10 μM, First 15 min, read-out: % Change compared to pre-Carbachol); 26.6% in the data set with M1WT3 cells (0.25 h, 10 μM, First 15 min, read-out: % Change compared to pre-Carbachol minus 0 Carbachol); -9.77% in the data set with M1WT3 cells (0.5 h, 10 μM, Last 30 min, read-out: % Change compared to pre-Carbachol); 35.5% with M1WT3 cells (0.5 h, 10 μM, Last 30 min, read-out: % Change compared to pre-Carbachol minus 0 Carbachol); -10.9% in the data set with M1WT3 cells (0.5 h, 10 μM, Second 15 min, read-out: % Change compared to pre-Carbachol); 26.3% in the data set on M1WT3 cells (0.5 h, 10 μM, Second 15 min, read-out: % Change compared to pre-Carbachol minus 0 Carbachol). Further, the activation at 30 µM with M1WT3 cells (0.25 h, 30 μM, First 15 min, read-out: % Change compared to pre-Carbachol) was 18.6%; in the data set on M1WT3 cells (0.25 h, 30 μM, First 15 min, read-out: % Change compared to pre-Carbachol minus 0 Carbachol), 25.3%; with M1WT3 cells (0.5 h, 30 μM, Last 30 min, read-out: % Change compared to pre-Carbachol), -5.63%; in the data set on M1WT3 cells (0.5 h, 30 μM, Last 30 min, read-out: % Change compared to pre-Carbachol minus 0 Carbachol), 39.6%; in the data set on M1WT3 cells (0.5 h, 30 μM, Second 15 min, read-out: % Change compared to pre-Carbachol) it was -8.46%; with M1WT3 cells (0.5 h, 30 μM, Second 15 min, read-out: % Change compared to pre-Carbachol minus 0 Carbachol) it was 28.8%. Further, the activation at 300 µM is 19.4% with M1WT3 cells (0.25 h, 300 μM, First 15 min, read-out: % Change compared to pre-Carbachol); 26.1% in the data set on M1WT3 cells (0.25 h, 300 μM, First 15 min, read-out: % Change compared to pre-Carbachol minus 0 Carbachol); -8.08% with M1WT3 cells (0.5 h, 300 μM, Last 30 min, read-out: % Change compared to pre-Carbachol); 37.2% with M1WT3 cells (0.5 h, 300 μM, Last 30 min, read-out: % Change compared to pre-Carbachol minus 0 Carbachol); -8.33% in the data set with M1WT3 cells (0.5 h, 300 μM, Second 15 min, read-out: % Change compared to pre-Carbachol); 28.9% in the data set with M1WT3 cells (0.5 h, 300 μM, Second 15 min, read-out: % Change compared to pre-Carbachol minus 0 Carbachol).

Consider `O=S(=O)([O-])[O-].[Fe+2].c1cnc2c(c1)ccc1cccnc12.c1cnc2c(c1)ccc1cccnc12.c1cnc2c(c1)ccc1cccnc12` [Tris(1,10-phenanthroline)Iron(R) Sulfate], for which, in data set [1], the “Potential at pHOa” value is recorded as 1.14 Volts.

For `Cc1cc(-c2ccc(N)c(C)c2)ccc1N` [o-Tolidine], the “Potential at pHOa” value in data set [1] is given as 0.87 Volts.

For Brilliant Cresyl Blue, the “Potential at pHOa” value in data set [1] is listed as 0.58 Volts.

For `Nc1ccc2nc3ccc(N)cc3[s+]c2c1` [Thionin], in data set [1], the “Potential at pHOa” value is 0.56 Volts.

Diphenylaminosulfonic Acid Sodium Salt: in data set [1], the “Potential at pHOa” value is on record as 0.85 Volts.

With `c1ccc(Nc2ccccc2)cc1` [Diphenylamine], the “Potential at pHOa” value in data set [1] is recorded as 0.76 Volts.

`O=C1C(Cl)=CC(=Nc2ccc(O)cc2)C=C1Cl` [2,6-Dichloroindophenol Sodium Salt]: the “Potential at pHOa” value in data set [1] is on record as 0.67 Volts.

For the molecule `O=S(=O)([O-])c1ccc(Nc2ccccc2)cc1.O=S(=O)([O-])c1ccc(Nc2ccccc2)cc1.[Ba+2]` [Barium Diphenylaminesulfonate], the “Potential at pHOa” value in data set [1] is 0.85 Volts.

For the molecule `CN(C)c1ccc(N=C2C=CC(=O)C=C2)cc1` [N,N-Dimethylindoaniline], the “Potential at pHOa” value in data set [1] is listed as 0.22 Volts.

As for `O.O.[C-]#N.[C-]#N.[Fe+2].c1cnc2c(c1)ccc1cccnc12.c1cnc2c(c1)ccc1cccnc12` [Dicyanobis(1,10-phenanthroline)Iron], the “Potential at pHOa” value in data set [1] is given as 1.41 Volts.

As for `CCN=C1C=CC(=C(c2ccc(NCC)c(C)c2)c2ccc(S(=O)(=O)O)cc2S(=O)(=O)O)C=C1C` [Xylene Cyanol FF], the “Potential at pHOa” value in data set [1] is on record as 1.00 Volts.

With N,N-Diphenylbenzidine, in data set [1], the “Potential at pHOa” value is reported as 0.76 Volts.

Take `COc1cc(-c2ccc(N)c(OC)c2)ccc1N.Cl.Cl` [3,3'-Dimethoxybenzidine Dihydrochloride]: in data set [1], the “Potential at pHOa” value was 0.76 Volts.

Consider `CN(C)c1ccc(N)cc1` [N,N-Dimethyl-p-phenylanediamine], for which the “Potential at pHOa” value in data set [1] is reported as 0.76 Volts.
